In this data set the test system is ddY-N mouse. Briefly: Body weight gain of young mice over 28 days of administration (Example 7). The class given is in vivo. On the procedure:
A total of 120 animals (60 animals for each of male and female) of about 4 weeks old of ddY-N mouse produced by Nippon Ikagaku Dobutsu Shizai Kenkyusho Co., Ltd. was purchased and subjected to 1 week of medical inspection to confirm that their healthy state is normal, and then used in the test. The test plots were set to a total of 4 plots of a control plot in which distilled water for injection is administered into the stomach using a stomach tube at a ratio of 10 ml per 1 kg body weight of the mouse to be tested for 28 continuous days, and 3 test plots in which ALA hydrochloride is administered in the same manner at respective ratios of 5 mg, 10 mg and 25 mg per 1 kg body weight of the mouse to be tested. The mice to be tested were divided into 12 groups, 1 group including 5 males or females, in such a manner that average body weight of each group became almost uniform, and 3 groups of males or females were allotted to each plot and raised for 28 days. The mice to be tested were raised by each group using a series of five stainless steel cages arranged in a raising room set to a room temperature of 23.0±2.0° C. and an irradiation time of 12 hours/day. Body weight gain was calculated by measuring individual body weight at intervals of 1 week from the start of the test.

This is an account of results in patent publication US8790712B2, “Constitutional function-improving agents” (Cosmo Oil Co., Ltd., priority 2004, dated 2014).

For the compound `NCC(=O)CCC(=O)O` [ALA, 5-aminolevulinic acid], the “Growth (growth curves, body weight gain)” value (10 mg/kg into the stomach for 28 days, compared with control, 5 mg/kg and 25 mg/kg plots, averages of males and females) is “superior growth than other 3 plots”. In addition, under “ALA-treated groups, 5, 10 and 25 mg/kg for 28 days”, the Health state entry was “abnormal health state was not fund”.
